For one data set, the system named is PAF-induced hyperalgesia. In words: Platelet Activating Factor (PAF) Induced Hyperalgesia in the Rat. In kind it is in vivo, female Sprague-Dawley rats. The settings on record: for responders at 30 mg/kg: Rattus norvegicus, read-out: % Rats Exhibiting Analgesia; for Effect in PAF-induced hyperalgesia assay: p.o.; for Vocalization Threshold: mean in inflamed paw 3 hr after PAF; for % Analgesia: percentage of animals with V.T. greater than 200% of vehicle-treated controls. The procedure:
1. Platelet Activating Factor. Induced Hyperalgesia in the Rat.
Groups of 10 female Sprague-Dawley rats, 35-50 g (Taconic Farms), were fasted overnight prior to testing. Hyperalgesia was induced in the rat by the subplantar injection of 1 ug PAF in physiological saline. Pain threshold was measured by applying pressure to the plantar surface of the hindpaw by means of a compressed air driven piston with a 2 mm tip. Vocalization thresholds were obtained 3 hr after injection of the PAF. Compounds, prepared at various doses in 1% methylcellulose suspension, were administered perorally 30 min before PAF. For each drug treatment group, animals with response pressures in the inflamed paw of 200% of control was considered to be analgesic. The mean vocalization threshold for each group was also calculated.

Data set [1] has as its system adjuvant-induced arthritis (Mycobacterium butyricum). In words: Developing Adjuvant-Induced Arthritis Assay in the Lewis Rat. Type of data set: in vivo, Female Lewis rats. The note with it: for Adrenal Weight / Change Body Weight 0-21 days / Foot Swelling-Day 14 / Foot Swelling-Day 21 / Thymus Weight: mean ± SEM; for Bone/Cartilage Destruction Score: score 0-3, 0 = 0 destruction, 3 = Maximum destruction; for Protection from bone/cartilage (hard tissue) destruction, X-ray: day 21, hindpaw joints, Compound A 3.0 and 10 mg/kg/day, Indomethacin 1 mg/kg/day. The arrangement: Foot Swelling-Day 14: unit not given here. How it is done: 3. Adjuvant Arthritis Assay
During the development of adjuvant arthritis, the rats lose body weight, the thymus gland involutes and the adrenal gland weight increases.
Female Lewis rats (purchased from Charles River, Wilmington, MA) were sorted into groups of ten in the weight range 160-199 g. The rats were sensitized to Mycobacterium butyricum (Difco) by the subplantar injection of 0.1 ml light mineral oil (Lubinol, Purepac Pharmaceutical Co., Elizabeth, NJ) containing 0.5 mg of the Mycobacterium into the left hindpaw. The Mycobacterium suspension was prepared by grinding in a glass mortar followed by the addition of the appropriate volume of light mineral oil. The suspension was transferred to a glass vial and stirred for 15 minutes on a magnetic stirrer to obtain a uniform suspension. After sensitization the rats were returned to metronic wire-bottomed cages and allowed food and water ad libitum with the food placed on the bottom of the cages for easy access. […] Rats received compound daily perorally as a suspension in 0.25% agar starting on the day of sensitization. Disease was quantitated by measuring the volume of the noninjected hindpaw by mercury displacement on days 0, 14 and 21. On day 21 (at the termination of the experiment) x-rays of the noninjected hindpaw were taken using a Phillips dental x-ray machine. Total body weight was determined on days 0 and 21 and at the termination of the experiment the thymus was removed and weighed. The statistical significance of the data was determined using Students t test.

The subject of a further data set is PBQ-induced writhing. In words: Phenylbenzoquinone (PBQ)-induced writhing in the Mouse. Type of data set: in vivo, female mice (CD-1). The note with it: for ED50: Mus musculus, po; for % Inhibition: writhing. The procedure: 2. PHENYLBENZOQUINONE (PBQ)-induced writhing in the Mouse […] Groups of 10 female mice (CD-1, Charles River Breeding Laboratories), weighing 20-25 g were fasted overnight prior to experiments. […] The number of writhes for each animal was recorded and the group means and standard errors were calculated. The means obtained from the drug treated groups were compared to the vehicle control means values and percent inhibition of writhing was calculated. ED50 values were calculated by regression analysis.
For orientation: An intraperitoneal irritant provokes the stretching counted in writhing tests.

The subject of data set [2] is indomethacin-induced gastric lesions. Type of data set: in vivo, Male Sprague-Dawley rats. The settings on record: for No. Gastric Lesions: Mean + S.E.M. How it is done:
Male Sprague-Dawley rats, 130-150 g each, were sorted into groups for assay. The rats were fasted for 24 hours.
Several hours after the administration of compound A, the animals are sacrificed, the stomachs removed, excises along the inner curvature, washed carefully with cool tap water and placed in 0.9% saline. When all groups have been processed, the mucosal region of the stomachs are examined under a magnifying lens and scored according to the total number of lesions present. Group scores represent the mean score of animals in that group. The effect of Compound A on indomethacin-induced gastric lesions is shown below in Table 6: […]

In data set [3] the test system is gastric acid secretion / gastric cytoprotection. The note with it: S. Szabo et al., Experimentia, 38, 254, 1982; cited from earlier work.
The mark [4] stands for this setting: Platelet, po, 3 h, Table 2, 30 mg/kg p.o.

Molecules are shown by their SMILES. Where two headings read alike, the source gives them in different places.

Turning to `CC(=O)Oc1ccccc1C(=O)O` [Aspirin, reference compound], in the data set with PAF-induced hyperalgesia (Table 2, 100 mg/kg p.o.), the “% Rats Exhibiting Analgesia” value is reported as 10%.
For the molecule `CC(C(=O)O)c1ccc2oc(-c3ccc(Cl)cc3)nc2c1` (stereo not shown) [Benoxaprofen, reference compound], the responders at 30 mg/kg with PAF-induced hyperalgesia (setting [4]) was 10%. Further, the “Effect in PAF-induced hyperalgesia assay” value in the data set on PAF-induced hyperalgesia (rat) is recorded as “completely ineffective”.
What is called ED50 is the dose at which the effect has come halfway, by size or by number of responders. One may read the % Inhibition as how much of the control response was suppressed. Consider `O=C(NC=C(c1ccccc1)c1cccs1)c1sc2ccc(C(F)(F)F)cc2c1O` [Compound A, 3-hydroxy-5-trifluoromethyl-N-[2-phenyl-2-(2-thienyl)]-benzo[b]thiophene-2-carboxamide], for which the ED50 in the data set on PAF-induced hyperalgesia (Platelet, po, 3 h, rat, dose required to raise VT to greater than 200% of vehicle-treated control in 50% of animals, confidence limits 0.11-0.3) amounted to 0.19 mg/kg; in data set [1] (po, 336 h, rat, p.o., swelling of noninjected hindpaw, day 14), 3 mg/kg; in the data set on PBQ-induced writhing, 1 mg/kg. Also, in the data set with PAF-induced hyperalgesia (Table 2, 0.1 mg/kg p.o.), the “% Rats Exhibiting Analgesia” value is 50%. For the same molecule, the “Vocalization Threshold” value amounted to 10.2 mmHg in the data set with PAF-induced hyperalgesia (rat, 0.001 mg/kg p.o. 30 min before PAF); 13.3 mmHg in the data set on PAF-induced hyperalgesia (rat, 0.01 mg/kg p.o. 30 min before PAF); 13.0 mmHg in the data set with PAF-induced hyperalgesia (rat, 0.03 mg/kg p.o. 30 min before PAF); 16.9 mmHg in the data set on PAF-induced hyperalgesia (rat, 0.1 mg/kg p.o. 30 min before PAF); 17.6 mmHg with PAF-induced hyperalgesia (rat, 0.3 mg/kg p.o. 30 min before PAF); 20.1 mmHg in the data set on PAF-induced hyperalgesia (rat, 1.0 mg/kg p.o. 30 min before PAF). Besides, in the data set on PAF-induced hyperalgesia (rat, 3.0 mg/kg p.o. 30 min before PAF), the “Vocalization Threshold” value amounted to 18.3 mmHg. For the same molecule, the “% Analgesia” value is listed as 10% with PAF-induced hyperalgesia (rat, 0.001 mg/kg p.o.); 25% in the data set with PAF-induced hyperalgesia (rat, 0.01 mg/kg p.o.); 30% in the data set on PAF-induced hyperalgesia (rat, 0.03 mg/kg p.o.); 50% in the data set on PAF-induced hyperalgesia (rat, 0.1 mg/kg p.o.); 50% in the data set on PAF-induced hyperalgesia (rat, 0.3 mg/kg p.o.); 67% in the data set on PAF-induced hyperalgesia (rat, 1.0 mg/kg p.o.). The “% Analgesia” value in the data set with PAF-induced hyperalgesia (rat, 3.0 mg/kg p.o.) stood at 70%. The “% Inhibition Foot Swelling-Day 14” value in data set [1] (3.0 mg/kg/day P.O.) is listed as 56%; in data set [1] (10.0 mg/kg/day P.O.) it was 73%. The entries for the “% Inhibition Foot Swelling-Day 21” value in data set [1] (3.0 mg/kg/day P.O.) and in data set [1] (10.0 mg/kg/day P.O.) were 43% and 66%, respectively. For the same molecule, the “Adrenal Weight” value in data set [1] (3.0 mg/kg/day P.O.) stood at 74.6 ± 3.3 mg; in data set [1] (10.0 mg/kg/day P.O.) it was 91.8 ± 2.7 mg. The “Change Body Weight 0-21 days” value was -14.7 ± 3.2 gm in data set [1] (3.0 mg/kg/day P.O.) and -12.2 ± 2.9 gm in data set [1] (10.0 mg/kg/day P.O.). The “Foot Swelling-Day 14” value in data set [1] (3.0 mg/kg/day P.O.) worked out at 449 ± 83; in data set [1] (10.0 mg/kg/day P.O.) it was 279 ± 39. The “Foot Swelling-Day 21” value in data set [1] (3.0 mg/kg/day P.O.) was 921 ± 125; in data set [1] (10.0 mg/kg/day P.O.), 554 ± 67. Further, the “Thymus Weight” value in data set [1] (3.0 mg/kg/day P.O.) is listed as 161.0 ± 17.7 mg; in data set [1] (10.0 mg/kg/day P.O.), 241.5 ± 17.1 mg. The “Bone/Cartilage Destruction Score” value came out at 2.6 in data set [1] (3.0 mg/kg/day P.O.) and 1.1 in data set [1] (10.0 mg/kg/day P.O.). For the same molecule, the “Effect on thymus weight loss” value in data set [1] (10 mg/kg/day) is given as “inhibited the loss in weight of the thymus”. Besides, in data set [1] (both dose levels (3.0 and 10 mg/kg/day)), the “Effect on body weight loss” value is reported as “significantly inhibited body weight loss”. Moreover, in data set [1] (chronic (21 days)), the “Inhibition of swelling of the noninjected hindpaw” value is “marked inhibition of swelling of the noninjected hindpaw”. The “Protection from bone/cartilage (hard tissue) destruction, X-ray” value in data set [1] is “protection of the bone and cartilage destruction was only seen at the 10 mg/kg day dose level”. For the same molecule, in the data set with PBQ-induced writhing (mouse, PBQ writhing, p.o.), the “Analgesic activity compared with standard drugs” value was “equivalent to piroxicam and greater than ibuprofen”. Also, the “% Inhibition” value in the data set with PBQ-induced writhing (mouse, 0.1 mg/kg p.o. 1 hr before PBQ) is listed as 9 ± 3%; in the data set on PBQ-induced writhing (mouse, 0.3 mg/kg p.o. 1 hr before PBQ), 10 ± 5%; in the data set on PBQ-induced writhing (mouse, 1.0 mg/kg p.o. 1 hr before PBQ), 39 ± 13%; in the data set on PBQ-induced writhing (mouse, 3.0 mg/kg p.o. 1 hr before PBQ), 78 ± 7%. In addition, the “% Inhibition of Lesions” value in data set [2] (0.1 mg/kg P.O.) is listed as 47%; in data set [2] (0.3 mg/kg P.O.) it was 60%; in data set [2] (1.0 mg/kg P.O.) it was 52%; in data set [2] (10.0 mg/kg P.O.) it was 81%. For the same molecule, the “No. Gastric Lesions” value is listed as 6.7 ± 4.1 in data set [2] (0.1 mg/kg P.O., indomethacin-induced (10 mg/kg)); 5.0 ± 3.1 in data set [2] (0.3 mg/kg P.O., indomethacin-induced (10 mg/kg)); 6.1 ± 5.5 in data set [2] (1.0 mg/kg P.O., indomethacin-induced (10 mg/kg)); 2.4 ± 1.1 in data set [2] (10.0 mg/kg P.O., indomethacin-induced (10 mg/kg)).
Consider `O=C(O)c1cc(-c2ccc(F)cc2F)ccc1O` [Diflunisal, reference compound], for which, in the data set on PAF-induced hyperalgesia (setting [4]), the responders at 30 mg/kg came to 10%.
As to `CC(C)Cc1ccc(C(C)C(=O)O)cc1` (stereo not shown) [Ibuprofen, reference compound], the responders at 30 mg/kg in the data set with PAF-induced hyperalgesia (setting [4]) turned out to be 10%. The “Effect in PAF-induced hyperalgesia assay” value in the data set with PAF-induced hyperalgesia (rat) is listed as “completely ineffective”. In the data set on PBQ-induced writhing, this molecule yielded a median effective dose (ED50) of 9 mg/kg.
Regarding `COc1ccc2c(c1)c(CC(=O)O)c(C)n2C(=O)c1ccc(Cl)cc1` [Indomethacin, reference compound], the “% Rats Exhibiting Analgesia” value with PAF-induced hyperalgesia (Table 2, 10 mg/kg p.o.) is listed as 10%. For the same molecule, in the data set with PAF-induced hyperalgesia (rat), the “Effect in PAF-induced hyperalgesia assay” value was “completely ineffective”. Further, in data set [1] (1.0 mg/kg/day P.O.), the “% Inhibition Foot Swelling-Day 14” value came to 87%, the “% Inhibition Foot Swelling-Day 21” value was found to be 88%, the “Adrenal Weight” value came to 82.7 ± 2.8 mg and the “Change Body Weight 0-21 days” value turned out to be 0.7 ± 3.4 gm. Besides, in data set [1] (1.0 mg/kg/day P.O.), the “Foot Swelling-Day 21” value was found to be 190 ± 38, the “Thymus Weight” value is on record as 359.6 ± 17.9 mg and the “Bone/Cartilage Destruction Score” value was found to be 0.1. The “Protection from bone/cartilage (hard tissue) destruction, X-ray” value in data set [1] is on record as “virtually complete protection from hard tissue destruction”. In addition, the “No. Gastric Lesions” value in data set [2] (indomethacin alone 10.0 mg/kg P.O.) is given as 12.6 ± 4.4.
For the molecule `COc1ccc2cc([C@H](C)C(=O)O)ccc2c1` [Naproxen, reference compound], the “% Rats Exhibiting Analgesia” value in the data set with PAF-induced hyperalgesia (Table 2, 30 mg/kg p.o.) was 10%.
Take `CN1C(C(=O)Nc2ccccn2)=C(O)c2ccccc2S1(=O)=O` [Piroxicam, reference compound]: the responders at 30 mg/kg with PAF-induced hyperalgesia (setting [4]) amounted to 0%. The “Effect in PAF-induced hyperalgesia assay” value with PAF-induced hyperalgesia (rat) was “completely ineffective”. Besides, the ED50 in the data set on PBQ-induced writhing amounted to 2 mg/kg.
Take `CC1=C(CC(=O)O)c2cc(F)ccc2/C1=C\c1ccc([S+](C)[O-])cc1` (stereo not shown) [Sulindac, reference compound]: in the data set on PAF-induced hyperalgesia (setting [4]), the responders at 30 mg/kg stood at 10%.
Take `CCCCC[C@H](O)/C=C/[C@@H]1[C@@H](C/C=C\CCCC(=O)O)[C@H](O)C[C@H]1O` [protaglandin F2B]: in data set [3], the “Gastric cytoprotection” value is “does induce gastric cytoprotection” and the “Inhibition of gastric acid secretion” value is “does not inhibit gastric acid secretion”.

The values above are taken from US5068248A, “N-alkenyl-3-hydroxybenzo[b]thiophene-2-carboxamide derivatives as dual cyclooxygenase and lipoxygenase inhibitors” (Merck & Co., Inc., priority 1989, dated 1991).
